From patent US20090239841A1, “Diaryl Ureas as CB1 Antagonists” (priority 2004, published 2009)

Biological target: T1, hCB1 (Homo sapiens, UniProt P21554)
T1 construct: made in house; host or cells: Sf9 insect cells (baculovirus), P2 membranes
Assay: Agonist-induced GTP binding (GTPγ35S) assay at CB1, Example 8
Assay type: biochemical
Details: IC50 at CB1, determined as described in Example 8; read-out: IC50
Outline: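 Membranes from Sf9 cells co-expressing hCB1 and heterotrimeric G-protein (10 μg protein) in Tris pH 7.4 buffer with 5 μM GDP. Test compounds (10^−10–10^−5 M) competed against 1 nM CP55,940 with […] GTPγ35S, 60 min at room temperature. Filter-bound radioactivity by scintillation, expressed as percent above basal.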

T1 sequence (P21554 whole entry): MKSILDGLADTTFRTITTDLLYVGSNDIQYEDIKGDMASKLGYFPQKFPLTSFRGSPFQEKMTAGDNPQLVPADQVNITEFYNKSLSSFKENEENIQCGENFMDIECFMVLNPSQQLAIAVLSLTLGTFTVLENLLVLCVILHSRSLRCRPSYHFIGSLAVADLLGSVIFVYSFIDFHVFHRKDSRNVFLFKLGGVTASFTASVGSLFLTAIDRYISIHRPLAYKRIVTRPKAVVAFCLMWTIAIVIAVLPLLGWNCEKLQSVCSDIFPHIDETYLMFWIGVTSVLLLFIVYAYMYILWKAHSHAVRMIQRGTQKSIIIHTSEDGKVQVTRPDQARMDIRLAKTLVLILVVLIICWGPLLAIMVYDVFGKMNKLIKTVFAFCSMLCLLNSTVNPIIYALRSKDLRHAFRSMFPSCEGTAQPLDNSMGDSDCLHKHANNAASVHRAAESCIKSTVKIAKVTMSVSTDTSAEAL

IC50 [nM] | SMILES
< 2000 | Cc1ccc(NC(=O)Nc2cccc(C#N)c2)cc1F [Compound 448, 1-(3-cyanophenyl)-3-(3-fluoro-4-methylphenyl)urea]
< 2000 | CC(=O)c1cccc(NC(=O)Nc2ccc(C)c(F)c2)c1 [Compound 449, 1-(3-acetylphenyl)-3-(3-fluoro-4-methylphenyl)urea]
< 2000 | CC(=O)c1ccc(NC(=O)Nc2ccc(C)c(F)c2)cc1 [Compound 450, 1-(4-acetylphenyl)-3-(3-fluoro-4-methylphenyl)urea]
< 2000 | CC(=O)c1ccc(NC(=O)Nc2ccc(F)c(C)c2)cc1 [Compound 451, 1-(4-acetylphenyl)-3-(4-fluoro-3-methylphenyl)urea]
< 2000 | CC(=O)c1ccc(NC(=O)Nc2ccc(F)c(F)c2)cc1 [Compound 452, 1-(4-acetylphenyl)-3-(3,4-difluorophenyl)urea]
< 2000 | N#Cc1ccc(NC(=O)Nc2ccc3c(c2)CCC3)cc1 [Compound 453, 1-(4-cyanophenyl)-3-(2,3-dihydro-1H-inden-5-yl)urea]
< 2000 | N#Cc1cccc(NC(=O)Nc2ccc3c(c2)CCC3)c1 [Compound 454, 1-(3-cyanophenyl)-3-(2,3-dihydro-1H-inden-5-yl)urea]
< 2000 | CC(=O)c1cccc(NC(=O)Nc2ccc3c(c2)CCC3)c1 [Compound 455, 1-(3-acetylphenyl)-3-(2,3-dihydro-1H-inden-5-yl)urea]
< 2000 | CC(=O)c1ccc(NC(=O)Nc2ccc3c(c2)CCC3)cc1 [Compound 456, 1-(4-acetylphenyl)-3-(2,3-dihydro-1H-inden-5-yl)urea]
< 2000 | Cc1ccc(NC(=O)Nc2cccc(C#N)c2)cc1Cl [Compound 457, 1-(3-chloro-4-methylphenyl)-3-(3-cyanophenyl)urea]
< 2000 | CC(=O)c1cccc(NC(=O)Nc2ccc(C)c(Cl)c2)c1 [Compound 458, 1-(3-acetylphenyl)-3-(3-chloro-4-methylphenyl)urea]
< 2000 | Cc1cccc(NC(=O)Nc2ccc(CC#N)cc2)c1 [Compound 459, 1-[4-(cyanomethyl)phenyl]-3-(3-methylphenyl)urea]
< 2000 | Cc1ccc(NC(=O)Nc2ccc(CC#N)cc2)cc1 [Compound 460, 1-[4-(cyanomethyl)phenyl]-3-(4-methylphenyl)urea]
< 2000 | N#CCc1ccc(NC(=O)Nc2cccc(F)c2)cc1 [Compound 461, 1-[4-(cyanomethyl)phenyl]-3-(3-fluorophenyl)urea]
< 2000 | N#CCc1ccc(NC(=O)Nc2ccc(F)cc2)cc1 [Compound 462, 1-[4-(cyanomethyl)phenyl]-3-(4-fluorophenyl)urea]
< 2000 | Cc1ccc(NC(=O)Nc2ccc([N+](=O)[O-])cc2)cc1 [Compound 463, 1-(4-methylphenyl)-3-(4-nitrophenyl)urea]
< 2000 | Cc1cccc(NC(=O)Nc2ccc(OCC#N)cc2)c1 [Compound 464, 1-[4-(cyanomethoxy)phenyl]-3-(3-methylphenyl)urea]
< 2000 | Cc1ccc(NC(=O)Nc2ccc(OCC#N)cc2)cc1 [Compound 465, 1-[4-(cyanomethoxy)phenyl]-3-(4-methylphenyl)urea]
< 2000 | N#CCOc1ccc(NC(=O)Nc2cccc(F)c2)cc1 [Compound 466, 1-[4-(cyanomethoxy)phenyl]-3-(3-fluorophenyl)urea]
< 2000 | N#CCOc1ccc(NC(=O)Nc2ccc(F)cc2)cc1 [Compound 467, 1-[4-(cyanomethoxy)phenyl]-3-(4-fluorophenyl)urea]
< 2000 | CCC(=O)c1ccc(NC(=O)Nc2cccc(C)c2)cc1 [Compound 468, 1-(3-methylphenyl)-3-(4-propionylphenyl)urea]
< 2000 | CCC(=O)c1ccc(NC(=O)Nc2ccc(C)cc2)cc1 [Compound 469, 1-(4-methylphenyl)-3-(4-propionylphenyl)urea]
< 2000 | COC(=O)c1ccc(NC(=O)Nc2ccc(C)cc2)cc1 [Compound 470, methyl 4-({[(4-methylphenyl)amino]carbonyl}amino)benzoate]
< 2000 | COC(=O)c1ccc(NC(=O)Nc2cccc(F)c2)cc1 [Compound 471, methyl 4-({[(3-fluorophenyl)amino]carbonyl}amino)benzoate]
< 2000 | COC(=O)c1ccc(NC(=O)Nc2ccc(F)cc2)cc1 [Compound 472, methyl 4-({[(4-fluorophenyl)amino]carbonyl)amino)benzoate]
< 2000 | CCOC(=O)c1ccc(NC(=O)Nc2cccc(C)c2)cc1 [Compound 473, ethyl 4-({[(3-methylphenyl)amino]carbonyl}amino)benzoate]
< 2000 | CCOC(=O)c1ccc(NC(=O)Nc2ccc(C)cc2)cc1 [Compound 474, ethyl 4-({[(4-methylphenyl)amino]carbonyl}amino)benzoate]
< 2000 | CCOC(=O)c1ccc(NC(=O)Nc2cccc(F)c2)cc1 [Compound 475, ethyl 4-({[(3-fluorophenyl)amino]carbonyl}amino)benzoate]

IC50 [nM] | SMILES
< 2000 | CCOC(=O)c1ccc(NC(=O)Nc2ccc(F)cc2)cc1 [Compound 476, ethyl 4-({[(4-fluorophenyl)amino]carbonyl}amino)benzoate]
< 2000 | Cc1cccc(NC(=O)Nc2ccc(C(=O)OC(C)C)cc2)c1 [Compound 477, isopropyl 4-({[(3-methylphenyl)amino]carbonyl}amino)benzoate]
< 2000 | Cc1ccc(NC(=O)Nc2ccc(C(=O)OC(C)C)cc2)cc1 [Compound 478, isopropyl 4-({[(4-methylphenyl)amino]carbonyl}amino)benzoate]
< 2000 | CC(C)OC(=O)c1ccc(NC(=O)Nc2cccc(F)c2)cc1 [Compound 479, isopropyl 4-({[(3-fluorophenyl)amino]carbonyl}amino)benzoate]
< 2000 | CC(C)OC(=O)c1ccc(NC(=O)Nc2ccc(F)cc2)cc1 [Compound 480, isopropyl 4-({[(4-fluorophenyl)amino]carbonyl}amino)benzoate]
< 2000 | COC(=O)c1ccc(NC(=O)Nc2ccccc2)cc1 [Compound 481, methyl 4-[(anilinocarbonyl)amino] benzoate]
< 2000 | CCc1cccc(NC(=O)Nc2ccc(CC#N)cc2)c1 [Compound 482, 1-[4-(cyanomethyl)phenyl]-3-(3-ethylphenyl)urea]
< 2000 | CCc1ccc(NC(=O)Nc2ccc(CC#N)cc2)cc1 [Compound 483, 1-[4-(cyanomethyl)phenyl]-3-(4-ethylphenyl)urea]
< 2000 | N#CCc1ccc(NC(=O)Nc2cccc(Cl)c2)cc1 [Compound 484, 1-(3-chlorophenyl)-3-[4-(cyanomethyl)phenyl]urea]
< 2000 | N#CCc1ccc(NC(=O)Nc2ccc(Cl)cc2)cc1 [Compound 485, 1-(4-chlorophenyl)-3-[4-(cyanomethyl)phenyl]urea]
< 2000 | CCc1ccc(NC(=O)Nc2ccc([N+](=O)[O-])cc2)cc1 [Compound 487, 1-(4-ethylphenyl)-3-(4-nitrophenyl)urea]
< 2000 | CCc1cccc(NC(=O)Nc2ccc(OCC#N)cc2)c1 [Compound 488, 1-[4-(cyanomethoxy)phenyl]-3-(3-ethylphenyl)urea]
< 2000 | CCc1ccc(NC(=O)Nc2ccc(OCC#N)cc2)cc1 [Compound 489, N-[4-(cyanomethoxy)phenyl]-N′-(4-ethylphenyl)urea]
< 2000 | N#CCOc1ccc(NC(=O)Nc2cccc(Cl)c2)cc1 [Compound 490, 1-(3-chlorophenyl)-3-[4-(cyanomethoxy)phenyl]urea]
< 2000 | CCC(=O)c1ccc(NC(=O)Nc2cccc(CC)c2)cc1 [Compound 491, 1-(3-ethylphenyl)-3-(4-propionylphenyl)urea]
< 2000 | CCC(=O)c1ccc(NC(=O)Nc2ccc(CC)cc2)cc1 [Compound 492, 1-(4-ethylphenyl)-3-(4-propionylphenyl)urea]
< 2000 | CCC(=O)c1ccc(NC(=O)Nc2cccc(Cl)c2)cc1 [Compound 493, 1-(3-chlorophenyl)-3-(4-propionylphenyl)urea]
< 2000 | CCc1cccc(NC(=O)Nc2ccc(C(=O)OC)cc2)c1 [Compound 494, methyl 4-({[(3-ethylphenyl)amino]carbonyl}amino)benzoate]
< 2000 | CCc1ccc(NC(=O)Nc2ccc(C(=O)OC)cc2)cc1 [Compound 495, methyl 4-({[(4-ethylphenyl)amino]carbonyl}amino)benzoate]
< 2000 | COC(=O)c1ccc(NC(=O)Nc2ccc(Cl)cc2)cc1 [Compound 496, methyl 4-({[(4-chlorophenyl)amino]carbonyl}amino)benzoate]
< 2000 | CCOC(=O)c1ccc(NC(=O)Nc2cccc(CC)c2)cc1 [Compound 497, ethyl 4-({[(3-ethylphenyl)amino]carbonyl}amino)benzoate]
< 2000 | CCOC(=O)c1ccc(NC(=O)Nc2ccc(CC)cc2)cc1 [Compound 498, ethyl 4-({[(4-ethylphenyl)amino]carbonyl}amino)benzoate]
< 2000 | CCOC(=O)c1ccc(NC(=O)Nc2cccc(Cl)c2)cc1 [Compound 499, ethyl 4-({[(3-chlorophenyl)amino]carbonyl}amino)benzoate]
< 2000 | CCOC(=O)c1ccc(NC(=O)Nc2ccc(Cl)cc2)cc1 [Compound 500, ethyl 4-({[(4-chlorophenyl)amino]carbonyl}amino)benzoate]
< 2000 | CCc1ccc(NC(=O)Nc2ccc(S(C)(=O)=O)cc2)cc1 [Compound 501, 1-(4-ethylphenyl)-3-[4-(methylsulfonyl)phenyl]urea]
< 2000 | CCc1ccc(NC(=O)Nc2ccc(C(=O)OC(C)C)cc2)cc1 [Compound 502, isopropyl 4-({[(4-ethylphenyl)amino]carbonyl}amino)benzoate]
< 2000 | N#CCc1ccc(NC(=O)Nc2cccc(C#N)c2)cc1 [Compound 503, 1-[4-(cyanomethyl)phenyl]-3-(3-cyanophenyl)urea]
